The values that follow are results of earlier work, collected in patent EP3501609A1 (Zentiva K.S., priority 2017, dated 2019).

Consider `C=CC(=O)N1CCC[C@@H](n2nc(-c3ccc(Oc4ccccc4)cc3)c3c(N)ncnc32)C1` [ibrutinib form A], for which, where the note is “pH 1.2”, the solubility result is listed as “poorly soluble”. In addition, the solubility in water entry (pH range of 4.5-8) was “virtually insoluble”.
